Source: patent US7402560B2, “NCAM binding compounds” (priority 1998, dated 2008)
Where a chain is given by its changes, count along the chain named. In names and notes the source's numbering stands. Entries after “also recorded” stand apart in the source; their conditions may differ. No end group written: not given here.

Tests used:
[1] = test system: primary hippocampal neurones; assay: Neurite outgrowth from single primary hippocampal neurones (length of longest neurite, image analysis); assay type: cell-based, rat; details: for neurite outgrowth: substrate of plastic or fibronectin, 21 h
Experimental: The system allows the examination of cell adhesion, cell migration and formation of processes in the treated cells leading to possibly neurite outgrowth. To investigate the latter further, neurite extension from single neurones may be studied. Cells are prepared as in the aggregation study and seeded on a substrate of plastic or fibronectin. The cells are then maintained for a suitable time, whereafter the neurite outgrowth is analysed by a measurement of the neurite extension, for example by a computer-assisted image analysis program. The mean length of the longest neurite of each cell was measured for neurites longer than 10 μM (see FIG. 2). In addition, the mean number of branchpoints per neurite and the mean number of neurites per cell were determined. NCAM Ig1-Ig2 ligands to be tested are added immediately before seeding the cells.
5000 cells/well, corresponding to approximately 4000 cells/cm^2, were seeded in 8 well LabTek Tissue Culture Chamber Slides with a growth surface of Permanox plastic (NUNC A/S, Denmark) or fibronectin (cocultures) and maintained for 20 h as described in Example 7 (1).
To investigate the stimulatory effect on neurite extension, cells were prepared as described and seeded on a substrate of plastic or fibronectin. Cells were then maintained for 21 h and neurite outgrowth was analysed by computer-assisted image analysis using the program Linelength. The mean length of the longest neurite of each cell was measured for neurites longer than 10 μM. In addition, the mean number of branchpoints per neurite and the mean number of neurites per cell were determined.

NCAM Ig1 domain = target: T1, NCAM Ig1 domain (Rattus norvegicus, UniProt P13596); assay: Plasmon surface resonance analysis of binding to NCAM Ig1; details: dendrimer peptides immobilised on sensor chip CM5, Ig1 in solution, 25° C.
T1 construct: encoding amino acids 1-97 of rat NCAM; made in house; host or cells: Pichia pastoris strain His 4 GS-115 (pHIL-S1 plasmid)
Experimental: Real-time biomolecular interaction analysis was performed using a BIAlite instrument (Pharmacia Biosensor AB, Sweden). […] Binding of Ig1 to dendrimer peptides: […] of Ig1 or Ig1I at the indicated concentrations were applied. The chip was regenerated by two […] pulses of 5 mM NaOH. Two independent experiments were performed.

hippocampal cells = assay: Aggregate cultures of dissociated hippocampal cells (NCAM mediated cell adhesion); details: for aggregation of cells (number of cell aggregates): 24 h after seeding, higher number of aggregates reflects inhibition of aggregation; for inhibitory effect on aggregation of hippocampal cells: peptides at 180 μM (FIG. 19)
hippocampal neurons = assay: Neurite outgrowth from hippocampal neurons, stereological total neurite length per cell (ProcessLength); details: for neurite outgrowth (total neurite length per cell): low density culture
[2] = test system: primary hippocampal neurones on monolayers of fibroblasts; assay: Neurite outgrowth in cocultures of neurones on fibroblast monolayers with or without NCAM-140; assay type: cell-based, rat; details: 0.54 or 5.4 μM
Experimental: For cocultures, neurones were seeded on monolayers of fibroblasts, either L-cells or 3T3 cells with or without NCAM-B expression. Neurones were visualised using immunohistochemical staining for growth associated protein 43 kD (GAP43). Briefly, cells were fixed 30 min in 4% paraformaldehyde in phosphate buffered saline (PBS). The primary antibody was rabbit anti-GAP43 1:100 in PBS with 1% fetal bovine serum(FBS), 0.1% bovine serum albumin (BSA), 50 mM glycine, 0.02% NaN3, 2% saponine 1 h at room temperature or overnight at 4° C. The second antibody was biotinylated swine-anti-rabbit immunoglobulins 1:100 in PBS with 1% BSA 1 h at room temperature. The third “layer” was streptavidine coupled to FITC or horse radish peroxidase (HRP) 1:100 1 h at room temperature. Between layers, washings were performed 3×20 min in PBS with 1% BSA. Images of living or stained neurones were captured and analysed by the image analysis program Line Length created at the Protein Laboratory. Putative axons were identified as the longest neurite of each cell. Only neurites longer than […] were considered.
The mean length of neurites on NCAM-expressing fibroblasts was longer than the mean length of neurites on fibroblasts without NCAM expression.

[3] = test system: primary hippocampal neurones; assay: Cell proliferation by BrdU incorporation ELISA; assay type: cell-based
Experimental: (§1) Cell proliferation was determined by incorporation of 5-bromo-2′-deoxyuridin in a cell proliferation ELISA system (Amersham Life Science) according to the procedure of the manufacturer. Primary hippocampal neurones were seeded in microtiter plates at a density of 33000 cells per well. […] However, the net effect on proliferation depended on the growth status of cell. […] The net effect depends on the growth status of the cells but under the proper circumstances, a stimulation of proliferation will result.

neuroblastoma cells = assay: Proliferation of neuroblastoma cells; assay type: cell-based
PC12 cells = assay: Proliferation and neurite outgrowth of PC12 cells; assay type: cell-based, rat
Experimental: The effect of the ligands on proliferation and cell growth was also tested. […] After this initial promotion of proliferation, the peptides stimulate differentiation by increasing neurite outgrowth and at the same time suppressing proliferation. Thus the net effect on proliferation depends on the growth status of the cells. An effect on proliferation has been shown for primary cell cultures from the hippocampus cells and cultures of rat pheochromocytoma cell line PC12 cells. Accordingly, the ligands stimulate neurite outgrowth from and/or proliferation of NCAM presenting cells.
as §1

[4] = test system: primary hippocampal cells; assay: Cell growth by Cristal Violet staining; assay type: cell-based; details: 0.8 μM, 48 h
Experimental: Cell growth is another way of monitoring proliferation of the cells. Primary hippocampal cells were seeded into 96 well microtiter culture plates (Nunc A/S) at a density of 20.000 or 40.000 per well in defined medium as described above. Cells were grown for 48 h, centrifuged in order to remove medium, fixed in 3.7% formaldehyde in PBS for 15 min and stained with 0.5% Cristal Violet in 20% methanol for 15 min. Stained cells were thoroughly washed with Milli Q purified water, thereafter residual dye was solubilised with 0.1 M sodium citrate in 50% ethanol pH 4.2 and absorbance measured at 550 nm.

NCAM (20-208) = target: T2, NCAM (20-208) (Rattus norvegicus, UniProt P13596); assay: Gel filtration chromatography of NCAM (20-208) dimer formation
T2 construct: made in house

pertussis toxin [reference compound]
effect on the stimulatory effect of C3 on neurite extension [1]: inhibit the stimulatory effect of C3 on neurite extension

AKKERQRKDTQ (peptide fragment) [D3]
binding to the NCAM Ig1 domain (NCAM Ig1 domain): bound the NCAM-Ig1 in solution; also recorded: bind to the NCAM Ig1 domain | neurite outgrowth [1]: strongly stimulated neurite outgrowth; also recorded: increase in neurite outgrowth | aggregation of cells (number of cell aggregates) (hippocampal cells): inhibited aggregation of cells; also recorded: higher number of cell aggregates

GSILASGESNFK (peptide fragment) [P2-3S]
inhibitory effect on aggregation of hippocampal cells (hippocampal cells; 24 h): no inhibitory effect | neurite outgrowth (total neurite length per cell) (hippocampal neurons; 24 h): no neuritogenic effect; also recorded: no stimulatory effect

GSILASGSSNFK [P2-4S]
inhibitory effect on aggregation of hippocampal cells (hippocampal cells; 24 h): only a slight inhibitory effect | neurite outgrowth (total neurite length per cell) (hippocampal neurons; 24 h): no neuritogenic effect; also recorded: no stimulatory effect

COc1ccc2c(c1)CC[C@@H]1[C@@H]2CC[C@]2(C)[C@@H](NCCCCCCN3C(=O)C=CC3=O)CC[C@@H]12 [U-73122, reference compound]
effect on Ig2-peptide induced neurite outgrowth (hippocampal neurons; 3.6 μM Ig2-peptide dendrimer, Ig1 25 μM, α-FGFR 1:2000, CHD 200 μM, U-73122 5 μM (FIG. 23)): completely abrogated

ASKKPKRNIKA (peptide fragment) [C3]
binding to the NCAM Ig1 domain (NCAM Ig1 domain): bound the NCAM-Ig1 in solution; also recorded: bind to the NCAM Ig1 domain | concentration of maximal neuritogenic effect [1]: 0.54 µM | branching of neurites ([1]; 0.54 μM): strongly stimulated | number of neurites per cell ([1]; 0.54 μM): strongly stimulated | length of the longest neurite ([1]; 0.54 μM, plastic (FIG. 11)): strongly stimulated | neurite outgrowth [1]: strongly stimulated neurite outgrowth; also recorded: increase in neurite outgrowth | NCAM-induced increase in neurite length on NCAM-140 expressing fibroblasts (LBN) [2]: no difference between the length of neurites on fibroblasts with or without NCAM expression | neurite extension on fibroblasts without NCAM expression (LVN) [2]: neurite extension was stimulated | proliferation ([3]; higher concentrations, bell-shaped dose-response curve): inhibited proliferation | proliferation of neuroblastoma cells (neuroblastoma cells): promoted proliferation | neurite outgrowth of PC12 cells (PC12 cells): increased neurite outgrowth | proliferation of PC12 cells (PC12 cells): inhibitory effect on proliferation | cell growth [4]: increase cell growth | aggregation of cells (number of cell aggregates) (hippocampal cells): inhibited aggregation of cells; also recorded: higher number of cell aggregates

COc1ccc(CCN(C)CCCC(C#N)(c2ccc(OC)c(OC)c2)C(C)C)cc1OC (stereo not shown) [verapamil, reference compound]
effect on the stimulatory effect of C3 on neurite extension [1]: inhibit the stimulatory effect of C3 on neurite extension

D3-dendrimer: Four D3 peptide-monomers coupled to a backbone consisting of three lysines (AKKERQRKDTQ; also: dendrimer of four monomers coupled to a backbone of three lysines)
aggregation of cells (number of cell aggregates) (hippocampal cells): increased the number of aggregates formed

C3d: Dendrimer of four C3 peptide monomers coupled to a backbone consisting of three lysines (ASKKPKRNIKA; also: dendrimer of four monomers coupled to a backbone of three lysines)
NCAM-induced increase in neurite length on NCAM-140 expressing fibroblasts (LBN) [2]: inhibited | neurite extension on fibroblasts without NCAM expression (LVN) [2]: stimulated neurite out-growth | incorporation of BrdU (neuronal proliferation) ([3]; 0.8 μM): increased incorporation of BrdU | aggregation of cells (number of cell aggregates) (hippocampal cells): most potent form | number of aggregates of primary hippocampal neurones (hippocampal cells; 24 h in culture, 1.07 μM and 2.15 μM): increase in the number of aggregates formed

D4-dendrimer: Four D4 peptide-monomers coupled to a backbone consisting of three lysines (ARALNWGAKPK; also: dendrimer of four monomers coupled to a backbone of three lysines)
aggregation of cells (number of cell aggregates) (hippocampal cells): increased the number of aggregates formed

GEISVGESKFFL (peptide fragment) [Ig1-p]
aggregation of cells (hippocampal cells; 24 h, 250 μg/ml (FIG. 24)): inhibited aggregation of cells | neurite outgrowth (hippocampal neurons; 24 h, 5 μg/ml (FIG. 24)): promote neurite outgrowth

ARALNWGAKPK (peptide fragment) [D4]
binding to the NCAM Ig1 domain (NCAM Ig1 domain): bound the NCAM-Ig1 in solution; also recorded: bind to the NCAM Ig1 domain | neurite outgrowth [1]: strongly stimulated neurite outgrowth; also recorded: increase in neurite outgrowth | aggregation of cells (number of cell aggregates) (hippocampal cells): inhibited aggregation of cells; also recorded: higher number of cell aggregates

omega-conotoxin GVIA [reference compound]
effect on the stimulatory effect of C3 on neurite extension [1]: inhibit the stimulatory effect of C3 on neurite extension

COC(=O)/C=C/c1cc(O)ccc1O [erbstatin analogue, reference compound]
effect on the stimulatory effect of C3 on neurite extension [1]: inhibit the stimulatory effect of C3 on neurite extension

GRILARGEINFK (peptide fragment) [Ig2-p]
aggregation of cells (number of cell aggregates) (hippocampal cells): inhibited aggregation of cells | neurite outgrowth (total neurite length per cell) (hippocampal neurons; 24 h): strongly stimulated neurite outgrowth

B1: Ig1-2: Unmutated recombinant double Ig domain (Ig1-Ig2) of NCAM, NCAM (20-208) (protein)
chain: LQVDIVPSQGEISVGESKFFLCQVAGDAKDKDISWFSPNGEKLSPNQQRISVVWNDDDSSTLTIYNANIDDAGIYKCVVTAEDGTQSEATVNVKIFQKLMFKNAPTPQEFKEGEDAVIVCDVVSSLPPTIIWKHKGRDVILKKDVRFIVLSNNYLQIRGIKKTDEGTYRCEGRILARGEINFKDIQVIV
dimer formation (elution in gel filtration) (NCAM (20-208)): elutes as a dimer | neurite outgrowth (total neurite length per cell) (hippocampal neurons; 24 h): only slight, if any, effect

B2: mutated double domain: NCAM (20-208) double Ig domain with mutations R192A, R196A and E198A (protein)
chain: B1 chain with R173A, R177A, E179A
neurite outgrowth (total neurite length per cell) (hippocampal neurons; 24 h): inhibited in a dose dependent manner
